Measurements from patent US20110052494A1, “H-ANTIGEN BINDING POLYPEPTIDES AND METHODS OF USE” (priority 2008, published 2011).

How the values were obtained:
[1] = system: LLY (Streptococcus mitis SK597 lectinolysin, SEQ ID NO:1) on human donor 1 platelets; assay: Block of the lectin-dependent enhancement of LLY pore formation (calcein release from platelets); assay type: cell-based; settings: high responder platelets pretreated
Protocol: Calcein release assay. PRP was diluted 1:100 with HEPES/saline assay buffer (2 mM CaCl2, 1 mM MgCl2, 150 mM NaCl, 10 mM HEPES, pH 7.5) and incubated with 2 μM calcein-acetoxy methyl ester (Molecular Probes, Eugene, Oreg.) for 10 minutes at room temperature as previously described (17). LLY (0.7-2.9 nM) was incubated with the calcein-loaded PRP for 10 minutes at room temperature. Samples were then diluted with HEPES/saline and analyzed on a FACSCalibur flow cytometer (Becton-Dickinson) using settings as described previously (17). Cells losing calcein fluorescence were quantified as a percentage of total platelets.
The EC50 values for LLY- and LLY^CDC-dependent calcein release were calculated using a nonlinear sigmoidal dose-response curve fit of the data (Prism Software).
We hypothesized that enhancement of LLY activity resulted from a glycan-dependent interaction of the lectin domain after monomer bound the cell surface. If correct then preincubating platelets with LLY^Lec should prevent interaction of the lectin domain of LLY with surface glycans and block the enhancement of LLY activity on the highly sensitive donor 1 platelets.

[2] = biological target: T1, LLY^Lec-Q190C (isolated fucolectin domain of Streptococcus mitis SK597 lectinolysin, SEQ ID NO:3, Q190C = position 154 of the domain) (Streptococcus sp. SK597, UniProt B3UZR3, Q190C); assay: Glycan microarray binding, Alexa-488 labeled LLY^Lec; settings: for glycan microarray binding at the lowest LLY^Lec concentration: 5.6 nM LLY^Lec, determinants lacking the difucosylated structures
T1 construct: Alexa-488 maleimide on Cys-190; E. coli
Protocol: FIGS. 7A & 7B. LLY^Lec preferentially binds Le^y and Le^b glycans. Version 2.1 of the printed glycan microarray (Consortium for Functional Glycomics) was probed with Alexa-488 labeled LLY^Lec-Q190C at 560 nM, 56 nM and 5.6 nM. […] The average RFU (from 4-6 analysis with high and low values eliminated) for each bound glycan was determined as described in the Methods and the % CV (100×Standard Deviation÷Average) provides an indication of the precision of each measurement. […] AVG RFU is average relative fluorescence units; SP, spacer arm or linker between glycan and surface of the array; SP0, —CH2CH2NH2; and SP8, CH2CH2CH2NH2. Circles; galactose, squares; GalNac, triangles, fucose, squares; GlcNAc.
Chemical modification of LLY and its derivatives with sulfhydryl-specific fluorescent probes. Cysteine derivatives of LLY and LLY^Lec (i.e., the 162 amino acid fucolectin domain) were modified with Alexa Fluor 488 C5-maleimide (Invitrogen) via the sulfhydryl group as previously described (12). Modified protein stocks were adjusted to 10% (v/v) sterile glycerol, quick frozen in liquid nitrogen, and stored at −80° C. Proteins were labeled at an efficiency of 75% or greater.
Glycan microarray binding assay and scanning. Glycan microarrays were prepared as described previously (33,37) and obtained from the NIH/NIGMS-funded Consortium for Functional Glycomics (see http://www.functionalglycomics.org/static/index.shtml). Before assay, the slides were rehydrated for 5 minutes in TSM buffer (20 mM Tris-HCL, 150 mM sodium chloride (NaCl), 0.2 mM calcium chloride (CaCl2) and 0.2 mM magnesium chloride (MgCl2). Alexa-488-labeled LLY^Q190C and its derivatives were used in the binding assay (560-640 nM), and the bound proteins were detected directly via the fluorescent tag.
The slides were scanned with a Perkin Elmer ProScanarray MicroArray Scanner (Waltham, Mass.) using an excitation wavelength of 488 nm. ImaGene software (BioDiscovery, Inc., El Segundo, Calif.) was used to quantify fluorescence. The data are reported as average relative fluorescence units (RFU) from 4 of the 6 replicates (after removal of the highest and lowest values) for each glycan represented on the array. Versions 2.1 and 3.0 of the printed array were used in these studies and a complete list of glycans printed on these arrays can be found at the Functional Glycomics Gateway website:
Purified LLY^Lec-Q190C was fluorescently labeled with Alexa-488 and used to probe the glycan microarray. […] The AAA glycan binding site contains three key residues that make polar contacts with the fucose molecule. The Nε of His-52 contacts O-5 of the fucose ring whereas the guanidinium groups of Arg-79 and Arg-86 make contact with 3-OH and 4-OH ring hydroxyls of fucose (10). […]

Compound	effect of pretreatment on the high/low responder EC50 difference [1]	glycan microarray binding at the lowest LLY^Lec concentration [2]	glycan microarray ligand preference ([2]; printed glycan microarray, overall conclusion)
C[C@@H]1OC(O)[C@@H](O)[C@H](O)[C@@H]1O (stereo partly drawn) [fucose, L-fucose]	This difference was abolished		
Fucα1-2Galβ [H-antigen]		binds weakly or not at all	weaker ligand
GaNAclα1-3[Fucα1-2]Galβ1-3/4R [blood group A]		binds weakly or not at all	
Galα1-3[Fucα1-2]Galβ1-3/4R [blood group B]		binds weakly or not at all	
